# Measured values as given in patent US7803801B2, “Aminopyridine compounds having Syk inhibitory activity” (Japan Tobacco, Inc., priority 2005, dated 2010).
# Like-named read-outs stand apart in the source and are kept apart here.
# Experiments:
# [1] = molecular target: GST-Syk Full Protein (human) (Homo sapiens, UniProt P43405); assay: Syk kinase inhibition test (HTRF method); assay type: biochemical; conditions: read-out: sykHTRF ave IC50
# How it was run: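 HTRF read-out: after EDTA termination and 1 h with XL665-streptavidin and Eu-anti-phosphotyrosine, the 665/620 nm ratio was measured. The reaction ran 30 min at 20–25 °C with final 6.4 nM human GST-Syk, 250 nM biotinylated peptide, 100 μM ATP, pH 7.0 HEPES buffer, 2% DMSO.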
# [2] = test system: cultured human mast cells; assay: Degranulation inhibition test using cultured human mast cells (IgE cross-linking, β-Hexosaminidase release); assay type: cell-based; conditions: Mast cell, cultured human mast cells, read-out: human degranulation ave. IC50
# How it was run: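 Degranulation was triggered by anti-hIgE (10 μg/mL final, 30 min, 37 °C) after a 10-min compound pretreatment (DMSO 0.1%) of cord-blood CD34+-derived mast cells primed 5 days with IL-4 and IgE. β-Hexosaminidase in supernatant was measured with p-nitrophenyl-GlcNAc substrate (A405), expressed against water-lysed total; IC50 (M).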
# [3] = HTRF, 100 μM ATP, 30 min room temperature, average
# [4] = anti-hIgE stimulation, β-Hexosaminidase index, average
SMILES,"IC50 [1, 3] [µM]","IC50 [2, 4] [µM]","IC50 ([1]; Tables 1-x, compounds A) [µM]","IC50 ([2]; Tables 1-x, compounds A) [µM]"
Cc1ccnc(Nc2cccc(-c3cnc(COCC(=O)N4C[C@@H](O)[C@@H](O)C4)s3)n2)c1 [Compound A-374],0.1 to 1,> 1,–,–
Cc1ccnc(Nc2cccc(-c3cnc([C@@H](O)CN(C)C)s3)n2)c1 [Compound A-375],0.1 to 1,0.1 to 1,–,–
CC(=O)N(C)[C@@H](Cc1ccc(O)cc1)c1ncc(-c2cccc(Nc3cc(C)ccn3)n2)s1 [Compound A-376],–,–,0.1 to 1,0.1 to 1
CC(=O)Oc1ccc(C(=O)N2CCC(c3ncc(-c4cccc(Nc5cc(C)ccn5)n4)s3)CC2)cc1 [Compound A-377],–,–,0.1 to 1,0.1 to 1
Cc1ccnc(Nc2cccc(-c3cnc(C4CCN(C(=O)c5ccc(O)cc5)CC4)s3)n2)c1 [Compound A-378],–,–,0.1 to 1,0.1 to 1
Cc1ccnc(Nc2cccc(-c3cnc(CN4CCC[C@H]4CO)s3)n2)c1 [Compound A-379],–,–,0.1 to 1,0.1 to 1
Cc1ccnc(Nc2cccc(-c3cnc(CN4CCC(O)C4)s3)n2)c1 (centres unmarked) [Compound A-380],–,–,0.1 to 1,0.1 to 1
Cc1ccnc(Nc2cccc(-c3cnc(CN4C[C@@H](O)[C@@H](O)C4)s3)n2)c1 [Compound A-381],–,–,0.1 to 1,0.1 to 1
Cc1ccnc(Nc2cccc(-c3cnc(CN4CCN(c5ccc(O)cc5)CC4)s3)n2)c1 [Compound A-382],–,–,0.1 to 1,0.1 to 1
"Cc1ccnc(Nc2cccc(-c3cnc(CN4CC(=O)NC(=O)C4)s3)n2)c1 [Compound A-383, 4-{5-[6-(4-methylpyridin-2-ylamino)pyridin-2-yl]thiazol-2-ylmethyl}piperazine-2,6-dione]",–,–,< 0.1,0.1 to 1
CN[C@@H](Cc1ccc(O)cc1)c1ncc(-c2cccc(Nc3cc(C)ccn3)n2)s1 [Compound A-384],–,–,0.1 to 1,0.1 to 1
Cc1ccnc(Nc2cccc(-c3cnc(CN4C(=O)CC(C)(C)CC4=O)s3)n2)c1 [Compound A-385],–,–,0.1 to 1,0.1 to 1
Cc1ccnc(Nc2cccc(-c3cnc(CNC4CCN(C(=O)OC(C)(C)C)CC4)s3)n2)c1 [Compound A-386],–,–,0.1 to 1,0.1 to 1
Cc1ccnc(Nc2cccc(-c3cnc(CN4C(=O)COCC4=O)s3)n2)c1 [Compound A-387],–,–,0.1 to 1,0.1 to 1
Cc1ccnc(Nc2cccc(-c3cnc(COCC(=O)N4CCN(C)C(=O)C4)s3)n2)c1 [Compound A-388],–,–,> 1,> 1
Cc1ccnc(Nc2cccc(-c3cnc(C4CCCNC4)s3)n2)c1 (centres unmarked) [Compound A-390],–,–,0.1 to 1,0.1 to 1
Cc1ccnc(Nc2cccc(-c3cnc(CN4C(=O)CN(Cc5ccccc5)CC4=O)s3)n2)c1 [Compound A-391],–,–,> 1,> 1
Cc1ccnc(Nc2cccc(-c3cnc(C4CCCN(S(C)(=O)=O)C4)s3)n2)c1 (centres unmarked) [Compound A-392],–,–,0.1 to 1,0.1 to 1
Cc1ccnc(Nc2cccc(-c3cnc(COCC(=O)N4CC(=O)NC(=O)C4)s3)n2)c1 [Compound A-393],–,–,0.1 to 1,> 1
Cc1ccnc(Nc2cccc(-c3cnc([C@H](CO)NC(=O)c4ccc(O)cc4)s3)n2)c1 [Compound A-394],–,–,0.1 to 1,0.1 to 1
Cc1ccnc(Nc2cccc(-c3cnc(CNC(=O)c4cc(C)on4)s3)n2)c1 [Compound A-395],–,–,0.1 to 1,> 1
Cc1ccnc(Nc2cccc(-c3cnc(CNC(=O)c4c[nH]cn4)s3)n2)c1 [Compound A-396],–,–,0.1 to 1,> 1
Cc1ccnc(Nc2cccc(-c3cnc(C4CCN(C(=O)CS(C)(=O)=O)CC4)s3)n2)c1 [Compound A-397],–,–,0.1 to 1,0.1 to 1
Cc1ccnc(Nc2cccc(-c3cnc(C4CCN(S(=O)(=O)C(C)C)CC4)s3)n2)c1 [Compound A-398],–,–,0.1 to 1,> 1
Cc1ccnc(Nc2cccc(-c3cnc(COCC(=O)N4C[C@H](NCc5ccccc5)[C@@H](O)C4)s3)n2)c1 [Compound A-399],–,–,> 1,> 1
